Source: article PMC8956739, “A synthetic lipopeptide targeting top-priority multidrug-resistant Gram-negative pathogens” (Nature Communications, 2022)
Values after ≈ are worked out from the molar mass of the structure shown. Residues, ends and D or L forms follow the SMILES beside them.

Experiments:
A. baumannii FADDI-AB034 = assay type: cell-based, Acinetobacter baumannii; conditions: FADDI-AB034
How it was run: (§1)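 Each strain is tested in cation-adjusted Mueller–Hinton broth using the micro-dilution technique, and growth inhibition gives the MIC.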

A. baumannii ATCC 19606 = assay type: cell-based, Acinetobacter baumannii; conditions: ATCC 19606
How it was run: as §1

A. baumannii FADDI-AB030 = assay type: cell-based, Acinetobacter baumannii; conditions: FADDI-AB030
How it was run: as §1

Swiss mice, kidney = test: Nephrotoxicity in mice (kidney histopathology); assay type: in vivo, mouse
How it was run: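 Female Swiss mice (7-week-old, 22–28 g) received lipopeptides in saline either s.c. at 12 mg/kg ×6 every 2 h (total 72 mg/kg, n = 3) or i.p. at 20 or 25 mg/kg ×6 every 2 h (total 120 mg/kg, n = 6; 150 mg/kg, n = 3). Right kidney collected 20 h after last dose, fixed in 10% buffered formalin (pH 7.4), histology scored blinded.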

in vitro = assay type: cell-based, human; conditions: human, wild-type HK-2 cells (kidney proximal tubular), Cell viability, WT
Description: Fig. 6 Transcriptomic changes in human kidney proximal tubular HK-2 cells following treatments with polymyxin B (PMB), colistin (COL), F287, F319, and F365. a Numbers of differentially expressed genes. Distinctive intersections are color-coded. b Cell viability difference (two-tailed Student’s t-test, n = 4 biologically independent cells, Benjamini–Hochberg adjusted P-values) between wild-type HK-2 and KCNJ16 knockout (KO) cells following 24 h treatment with lipopeptides. n.s., not significant; ^*adjusted P < 0.05, ^**adjusted P < 0.01, ^***adjusted P < 0.001. Data are shown as mean ± s.d. and individual data points. c Extracted transcriptional regulatory network from Signor database with 1-step neighbor constraints (enlarged for detail). Source data are provided as a Source Data file.

## CCCCCCCC(=O)N[C@@H](CCN)C(=O)N[C@H](C(=O)N[C@@H](CCN)C(=O)N[C@H]1CCNC(=O)[C@H]([C@@H](C)O)NC(=O)[C@H](CCN)NC(=O)[C@H](CCN)NC(=O)[C@H](CC)NC(=O)[C@@H](CC(C)C)NC(=O)[C@H](CCN)NC1=O)[C@@H](C)O [Lipopeptide F319] (HELM PEPTIDE1{[CCCCCCCC(=O)[*:2]].[Dab].T.[Dab].[Dab].[Dab].[dL].[Abu].[Dab].[Dab].T}$PEPTIDE1,PEPTIDE1,5:R3-11:R2$$$V2.0)
A. baumannii FADDI-AB034
  MIC A. baumannii FADDI-AB034: <0.125 µg/mL
A. baumannii ATCC 19606
  MIC A. baumannii ATCC 19606: 0.5 µg/mL (≈ 0.443 µM)
A. baumannii FADDI-AB030
  MIC A. baumannii FADDI-AB030: 0.5 µg/mL (≈ 0.443 µM)
Swiss mice, kidney; 72 mg/kg/d subcutaneously in six divided doses every 2 h, n = 3
  Kidney histopathology (SQS Score): +1 (SQS + 1 = mild damage (overall score, 1 to <15))
Swiss mice, kidney; mouse, in vivo
  Kidney histopathology, mice with the SQS score: 1/3
In vitro; Rep1
  viability at 24 h: 79%
In vitro; Rep2
  viability at 24 h: 79.1%
In vitro; Rep3
  viability at 24 h: 78.8%
In vitro; Rep4
  viability at 24 h: 70.1%
